Test results: the supplement of paper PMC10307832

What was measured:
Test in all cases: relative viability (nuclei count vs DMSO), 5 days (fraction); higher = more cells survive
Calu-6 = system: Calu-6
Procedure, shortened: (§1)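 Five library-drug doses in √10 steps were combined with a fixed anchor-drug dose, or a single drug was given alone, by pin tool to lung cancer cell lines in 1536-well plates the day after seeding. Nuclei were stained and counted after 5 days. Relative viability is the nuclei count in treated wells over that in vehicle wells, taken as the median of duplicate plates.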

NCI-H1703 = system: NCI-H1703
Procedure, shortened: as §1

NCI-H2228 = system: NCI-H2228
Procedure, shortened: as §1

EMC-BAC-2 = system: EMC-BAC-2
Procedure, shortened: as §1

NCI-H2009 = system: NCI-H2009
Procedure, shortened: as §1

EBC-1 = system: EBC-1
Procedure, shortened: as §1

NCI-H1299 = system: NCI-H1299
Procedure, shortened: as §1

ABC-1 = system: ABC-1
Procedure, shortened: as §1

IA-LM = system: IA-LM
Procedure, shortened: as §1

A549 = system: A549
Procedure, shortened: as §1

**Q.** Cc1csc(=NC2CCCCC2)n1/N=C/c1ccc(O)c(O)c1O [MIM1] + CS(=O)(=O)CCNCc1ccc(-c2ccc3ncnc(Nc4ccc(OCc5cccc(F)c5)c(Cl)c4)c3c2)o1 [Lapatinib] (partner 2 µM) was tested. Which relative viability (Calu-6; first compound 0.2 µM) did it give?
**A.** 1.08

**Q.** What about the relative viability (Calu-6; first compound 0.6325 µM) of the same compound?
**A.** 0.985

**Q.** And the relative viability (Calu-6; first compound 2 µM)?
**A.** 1.06

**Q.** What about the relative viability (Calu-6; first compound 6.325 µM) of the same compound?
**A.** 0.509

**Q.** And the relative viability (Calu-6; first compound 20 µM)?
**A.** 0.289

**Q.** And the relative viability (NCI-H1703; first compound 0.2 µM)?
**A.** 1.02

**Q.** And the relative viability (NCI-H1703; first compound 0.6325 µM)?
**A.** 1.23

**Q.** And the relative viability (NCI-H1703; first compound 2 µM)?
**A.** 0.906

**Q.** And the relative viability (NCI-H1703; first compound 6.325 µM)?
**A.** 0.166

**Q.** And the relative viability (NCI-H1703; first compound 20 µM)?
**A.** 0.202

**Q.** What about the relative viability (NCI-H2228; first compound 0.2 µM) of the same compound?
**A.** 1.25

**Q.** And the relative viability (NCI-H2228; first compound 0.6325 µM)?
**A.** 0.735

**Q.** And the relative viability (NCI-H2228; first compound 2 µM)?
**A.** 1.22

**Q.** And the relative viability (NCI-H2228; first compound 6.325 µM)?
**A.** 0.346

**Q.** And the relative viability (NCI-H2228; first compound 20 µM)?
**A.** 0.247

**Q.** And the relative viability (EMC-BAC-2; first compound 0.2 µM)?
**A.** 0.861

**Q.** And the relative viability (EMC-BAC-2; first compound 0.6325 µM)?
**A.** 0.713

**Q.** What about the relative viability (EMC-BAC-2; first compound 2 µM) of the same compound?
**A.** 0.869

**Q.** What about the relative viability (EMC-BAC-2; first compound 6.325 µM) of the same compound?
**A.** 0.828

**Q.** What about the relative viability (EMC-BAC-2; first compound 20 µM) of the same compound?
**A.** 0.212

**Q.** And the relative viability (NCI-H2009; first compound 0.2 µM)?
**A.** 1.04

**Q.** What about the relative viability (NCI-H2009; first compound 0.6325 µM) of the same compound?
**A.** 0.876

**Q.** What about the relative viability (NCI-H2009; first compound 2 µM) of the same compound?
**A.** 1.1

**Q.** What about the relative viability (NCI-H2009; first compound 6.325 µM) of the same compound?
**A.** 0.449

**Q.** And the relative viability (NCI-H2009; first compound 20 µM)?
**A.** 0.133

**Q.** And the relative viability (EBC-1; first compound 0.2 µM)?
**A.** 0.199

**Q.** What about the relative viability (EBC-1; first compound 0.6325 µM) of the same compound?
**A.** 0.279

**Q.** What about the relative viability (EBC-1; first compound 2 µM) of the same compound?
**A.** 0.212

**Q.** And the relative viability (EBC-1; first compound 6.325 µM)?
**A.** 0.209

**Q.** And the relative viability (EBC-1; first compound 20 µM)?
**A.** 0.205

**Q.** What about the relative viability (NCI-H1299; first compound 0.2 µM) of the same compound?
**A.** 0.978

**Q.** What about the relative viability (NCI-H1299; first compound 0.6325 µM) of the same compound?
**A.** 0.954

**Q.** What about the relative viability (NCI-H1299; first compound 2 µM) of the same compound?
**A.** 1

**Q.** And the relative viability (NCI-H1299; first compound 6.325 µM)?
**A.** 0.924

**Q.** And the relative viability (NCI-H1299; first compound 20 µM)?
**A.** 0.948

**Q.** What about the relative viability (ABC-1; first compound 0.2 µM) of the same compound?
**A.** 1.32

**Q.** What about the relative viability (ABC-1; first compound 0.6325 µM) of the same compound?
**A.** 1.24

**Q.** And the relative viability (ABC-1; first compound 2 µM)?
**A.** 1.31

**Q.** And the relative viability (ABC-1; first compound 6.325 µM)?
**A.** 1.06

**Q.** What about the relative viability (ABC-1; first compound 20 µM) of the same compound?
**A.** 1.11

**Q.** And the relative viability (IA-LM; first compound 0.2 µM)?
**A.** 0.66

**Q.** And the relative viability (IA-LM; first compound 0.6325 µM)?
**A.** 0.869

**Q.** What about the relative viability (IA-LM; first compound 2 µM) of the same compound?
**A.** 0.716

**Q.** And the relative viability (IA-LM; first compound 6.325 µM)?
**A.** 0.375

**Q.** What about the relative viability (IA-LM; first compound 20 µM) of the same compound?
**A.** 0.151

**Q.** And the relative viability (A549; first compound 0.2 µM)?
**A.** 0.997

**Q.** What about the relative viability (A549; first compound 0.6325 µM) of the same compound?
**A.** 0.941

**Q.** What about the relative viability (A549; first compound 2 µM) of the same compound?
**A.** 1.03

**Q.** What about the relative viability (A549; first compound 6.325 µM) of the same compound?
**A.** 0.595

**Q.** And the relative viability (A549; first compound 20 µM)?
**A.** 0.222

**Q.** Cc1csc(=NC2CCCCC2)n1/N=C/c1ccc(O)c(O)c1O [MIM1] + CS(=O)(=O)N1CCN(Cc2cc3nc(-c4cccc5[nH]ncc45)nc(N4CCOCC4)c3s2)CC1 [Pictilisib] (partner 1 µM) was tested. Which relative viability (Calu-6; first compound 0.2 µM) did it give?
**A.** 0.909

**Q.** And the relative viability (Calu-6; first compound 0.6325 µM)?
**A.** 0.892

**Q.** And the relative viability (Calu-6; first compound 2 µM)?
**A.** 0.942

**Q.** What about the relative viability (Calu-6; first compound 6.325 µM) of the same compound?
**A.** 0.499

**Q.** And the relative viability (Calu-6; first compound 20 µM)?
**A.** 0.196

**Q.** What about the relative viability (NCI-H1703; first compound 0.2 µM) of the same compound?
**A.** 0.219

**Q.** What about the relative viability (NCI-H1703; first compound 0.6325 µM) of the same compound?
**A.** 0.304

**Q.** What about the relative viability (NCI-H1703; first compound 2 µM) of the same compound?
**A.** 0.286

**Q.** What about the relative viability (NCI-H1703; first compound 6.325 µM) of the same compound?
**A.** 0.177

**Q.** And the relative viability (NCI-H1703; first compound 20 µM)?
**A.** 0.182

**Q.** What about the relative viability (NCI-H2228; first compound 0.2 µM) of the same compound?
**A.** 0.435

**Q.** What about the relative viability (NCI-H2228; first compound 0.6325 µM) of the same compound?
**A.** 0.316

**Q.** What about the relative viability (NCI-H2228; first compound 2 µM) of the same compound?
**A.** 0.4

**Q.** What about the relative viability (NCI-H2228; first compound 6.325 µM) of the same compound?
**A.** 0.244

**Q.** And the relative viability (NCI-H2228; first compound 20 µM)?
**A.** 0.158

**Q.** What about the relative viability (EMC-BAC-2; first compound 0.2 µM) of the same compound?
**A.** 0.538

**Q.** What about the relative viability (EMC-BAC-2; first compound 0.6325 µM) of the same compound?
**A.** 0.479

**Q.** And the relative viability (EMC-BAC-2; first compound 2 µM)?
**A.** 0.542

**Q.** What about the relative viability (EMC-BAC-2; first compound 6.325 µM) of the same compound?
**A.** 0.562

**Q.** What about the relative viability (EMC-BAC-2; first compound 20 µM) of the same compound?
**A.** 0.238

**Q.** What about the relative viability (NCI-H2009; first compound 0.2 µM) of the same compound?
**A.** 0.931

**Q.** What about the relative viability (NCI-H2009; first compound 0.6325 µM) of the same compound?
**A.** 0.812

**Q.** And the relative viability (NCI-H2009; first compound 2 µM)?
**A.** 0.85

**Q.** What about the relative viability (NCI-H2009; first compound 6.325 µM) of the same compound?
**A.** 0.582

**Q.** What about the relative viability (NCI-H2009; first compound 20 µM) of the same compound?
**A.** 0.173

**Q.** What about the relative viability (EBC-1; first compound 0.2 µM) of the same compound?
**A.** 0.352

**Q.** And the relative viability (EBC-1; first compound 0.6325 µM)?
**A.** 0.384

**Q.** What about the relative viability (EBC-1; first compound 2 µM) of the same compound?
**A.** 0.355

**Q.** And the relative viability (EBC-1; first compound 6.325 µM)?
**A.** 0.253

**Q.** What about the relative viability (EBC-1; first compound 20 µM) of the same compound?
**A.** 0.191

**Q.** And the relative viability (NCI-H1299; first compound 0.2 µM)?
**A.** 0.726

**Q.** And the relative viability (NCI-H1299; first compound 0.6325 µM)?
**A.** 0.791

**Q.** What about the relative viability (NCI-H1299; first compound 2 µM) of the same compound?
**A.** 0.765

**Q.** And the relative viability (NCI-H1299; first compound 6.325 µM)?
**A.** 0.535

**Q.** And the relative viability (NCI-H1299; first compound 20 µM)?
**A.** 0.354

**Q.** What about the relative viability (ABC-1; first compound 0.2 µM) of the same compound?
**A.** 0.547

**Q.** What about the relative viability (ABC-1; first compound 0.6325 µM) of the same compound?
**A.** 0.852

**Q.** And the relative viability (ABC-1; first compound 2 µM)?
**A.** 0.722

**Q.** And the relative viability (ABC-1; first compound 6.325 µM)?
**A.** 0.286

**Q.** What about the relative viability (ABC-1; first compound 20 µM) of the same compound?
**A.** 0.286

**Q.** What about the relative viability (IA-LM; first compound 0.2 µM) of the same compound?
**A.** 0.36

**Q.** What about the relative viability (IA-LM; first compound 0.6325 µM) of the same compound?
**A.** 0.328

**Q.** And the relative viability (IA-LM; first compound 2 µM)?
**A.** 0.261

**Q.** And the relative viability (IA-LM; first compound 6.325 µM)?
**A.** 0.18

**Q.** And the relative viability (IA-LM; first compound 20 µM)?
**A.** 0.0832

**Q.** And the relative viability (A549; first compound 0.2 µM)?
**A.** 0.508

**Q.** And the relative viability (A549; first compound 0.6325 µM)?
**A.** 0.565

**Q.** What about the relative viability (A549; first compound 2 µM) of the same compound?
**A.** 0.636

**Q.** And the relative viability (A549; first compound 6.325 µM)?
**A.** 0.15

**Q.** And the relative viability (A549; first compound 20 µM)?
**A.** 0.0858
